Measurements published in patent US20210330861A1, “ANTIMICROBIAL COATING COMPOSITIONS” (BIOCANT - CENTRO DE INOVAÇÃO EM BIOTECNOLOGIA, priority 2012, published 2021).
Ends that are not written are not given here.

Columns and labels:
[1] = Zeta potential of gold nanoparticles; format: physicochemical; conditions: after centrifugation and redispersion in HEPES, room temperature
Protocol: The synthesized gold nanoparticle solutions were centrifuged at 14000 rpm followed by washing with mill-Q water to remove unreacted peptides and HEPES. The centrifuged gold nanoparticles were frozen and fridge dried at 223 K using . . . Thermogravimetric analysis (TGA) of peptide capped gold nanoparticles and gold nanoparticles synthesized without peptides was performed using over a temperature range of 30-600° C. at a heating rate of 10° C./min in presence of N2 gas. The binding of peptide on gold nanoparticle surface was analyzed, preferably by FTIR spectroscopy in ATR mode using JASCO spectrophotometer at 4 cm-1 resolutions with 64 scans. Zeta (ζ) potential of the synthesized gold nanoparticles after centrifugation and redispersion in HEPES were measured, preferably, using Brukerheaven instrument at room temperature.

S. aureus = assay: Antimicrobial activity testing of peptide capped gold nanoparticles and peptide in bacterial suspension (colony count); format: cell-based; conditions: 10 μg/mL, after 4 hr of incubation, 10% human serum
Protocol: (§1) S. aureus and E. coli were grown at 37° C. and maintained on LB plates (preferably, Luria-Bertani broth with 1.5% agar). Bacteria were also grown in LB media for overnight at 37° C. and cell counts were quantified by OD 600 measurements. Different amounts of peptide capped gold nanoparticles, peptide (5-10 μg/mL) and HEPES reduced gold nanoparticles (10 μg/mL) were added into bacterial suspensions ([…]) in presence of 10% human serum and incubated for 4 h at 37° C. 100 μL aliquots were taken out from the respective suspensions at 2 h intervals and diluted in PBS buffer to give […] and plated on LB agar plates followed by incubation at 37° C. Colonies were counted after 24 h of incubation. In another experiments, citric acid reduced gold nanoparticles were functionalized with 1 mg/mL mPEG-thiol (5 kDa). Gold nanoparticles were synthesized using citric acid as described previously (11). PEG and CMC peptide coated gold nanoparticles were incubated with 10% human serum for 2 hr at 4° C. followed by centrifugation at 14000 rpm to discard free human serum. Similarly, to study protease degradation, CMC coated gold nanoparticles and bare CMC peptides were treated with 1 mg/mL trypsin (phosphate buffer pH 8) for 2 h at 37° C. After 2 h of reaction, the nanoparticle solution was subjected to centrifugation to remove trypsin. Antimicrobial test was performed with human serum and trypsin treated peptide capped gold nanoparticles against E. coli.

E. coli = assay: as above; format: cell-based
Protocol: as §1

HUVEC = assay: Soluble CM peptide interaction with cells, MTT assay; format: cell-based, human; conditions: 24 h contact with soluble peptide
Protocol: Two human cell types such as human endothelial umbilical vein cells (HUVEC) as a model for vascularized tissues and normal dermal human fibroblasts (NDHF) one of the most common cell type present in human connective tissue were used to evaluate the cytotoxicity induced by CM peptide immobilized surfaces. HUVECs (preferably, Lonza, Cat. Number CC-2517, Walkersville, Md., USA) were cultured using endothelial growth factor-2 media (EGM-2), bullet kit media (preferably, Lonza, Cat. Number CC-3156) for at least 24 h prior to further use. Passages below six were used for all experiments.
HUVEC and NDHF cells were cultured as previously mentioned and platted at a density of 4.2×10^3 cells/cm2 in 24-well plates. Cells were allowed to grow 24 h prior to any experiments performed. Different concentrations of CM peptide solutions (50, 30, 20, 10, 5, 2.5 and 1 μg/mL) were incubated with both cells for 24 hr to evaluate the cytotoxicity effect of CM peptides using MTT cell metabolic activity assay.
Initially cells were washed with warm phosphate buffer saline (PBS). […] Absorbance was measured at 540 nm with reference to 670 nm in a UV-visible spectrophotometer (SynergyMx from Biotek Instruments, Winooski, Vt., United States) (I don't understand by reference).

Substance	ζ potential (mV) [1]	killing of bacteria (S. aureus)	killing of bacteria (E. coli; 10 μg/mL, after 4 hr of incubation, 10% human serum)	incubation time to kill bacteria (E. coli; absence of human serum (FIG. 9))	antimicrobial activity after trypsin treatment (E. coli; treated with 1 mg/mL trypsin for 2 h at 37° C.)	concentration at which negative influence on metabolic activity was also detected (MTT) (HUVEC)
KWKLFKKIGAVLKVLC [CMC peptide, KWKLFKKIGAVLKVLC]	+23±1 mV	reduced activity	reduced activity	60 min	did not show any antimicrobial activity	
Cecropin-mellitin [soluble CM peptide]						1000 ng/mL
